{"source": "paper PMC7746742", "about": "“The novel rexinoid MSU-42011 is effective for the treatment of preclinical Kras-driven lung cancer” (Scientific Reports, 2020)", "key": {"Kras-driven lung tumors": {"tested_on": "Kras-driven lung tumors", "assay": "Treatment of established vinyl carbamate-induced lung adenocarcinomas in A/J mice", "format": "in vivo", "description": "All experiments were performed ethically in accordance with the best practices and AAALAC-accredited Standards for the Management of Laboratory Animals at Michigan State University (MSU). These standards include making every effort to minimize suffering. Mice were euthanized by inhalation of carbon dioxide followed by removal of the lungs. All animal protocols were approved by the Institutional Animal Care and Use Committee (IACUC, protocol 201,800,050)) at MSU. At 7 and 8 weeks of age, A/J female mice (Jackson Laboratories) were injected i.p. with vinyl carbamate (Toronto Research Chemicals, 0.32 mg/mouse). Mice were fed a semi-synthetic diet (AIN-93G BioServ, Flemington NJ), beginning one week before initiation with vinyl carbamate and then for 8 weeks after the first injection. The mice were then randomized into groups (n = 15 mice/group) and fed treatment diets (100 mg rexinoid/kg AIN-93G diet or ~ 25 mg/kg body weight) for 12 weeks. Rexinoids were dissolved in a vehicle of 12.5 ml ethanol and 37.5 ml Neobee oil (Spectrum Chemical, Gardena CA) per kg AIN-93G diet. Six total doses of paclitaxel (Fisher; 15 mg/kg i.p.) and then carboplatin (Fisher; 50 mg/kg i.p.) were given every other week, beginning 9 weeks after injection with vinyl carbamate. After 12 weeks on the treatment diets, blood and lungs were harvested. Lungs were inflated with PBS and surface lesions counted. The left lung was fixed in neutral-buffered formalin (NBF), then sample numbers blinded and randomized. Grossly visible lung tumors on the surface of the left lung were counted. The left lung was embedded in paraffin, step-sectioned (6 sections/lung, 200 microns apart) and then stained with Haemotoxylin and Eosin (H&E). The number, size, and histopathology of tumors on the slides were then evaluated as described. The right lobes of the lung were divided into halves. One half was analyzed by flow cytometry and the other half flash frozen (CO2 and ethanol bath) and stored at − 80 °C.\nAt 11, 15, and 20 weeks after initiation, anesthesia was induced using 2–4% isofluorane in oxygen at 0.8–2 L/min in a chamber and then maintained using 1.5–2% isofluorane in oxygen at 0.8 L/min using a nosecone. Animals were kept on a heating pad or a heated platform while under anesthesia. Fur was removed from the thoracic area using a chemical depilitory (Nair) immediately prior to imaging. A Vevo 2100 (Fujifilm VisualSonics) high-frequency ultrasound with a MS550D 40 MHz transducer was used to image lung tumors."}, "[1]": {"assay": "Plasma triglycerides in MMTV-neu mice fed rexinoids", "format": "in vivo", "conditions": "MMTV-neu mice fed rexinoids for 10 days, n=5-6 mice/group", "description": "fold expression triglyceride\nSupplemental Fig 1. Correlation of SREPB mRNA expression and triglyceride levels. HepG2 human liver cells were treated with 300 nM of rexinoids for 8 hr,and lysates analyzed by RT-PCR. Triglycerides in plasma from MMTV-neu mice fed rexinoids for10 days were measured using a commercial kit(Abcam). *, p <0.01 vs control; **, p<0.05 vs bex and LG268; n=5-6 mice/group."}, "A549 lung cancer cells": {"tested_on": "A549 lung cancer cells", "assay": "MTT proliferation assay", "format": "cell-based, human", "conditions": "0–1 μM rexinoids, 72 hr", "description": "were treated with 0-1 μM rexinoids for 72 hr. Proliferation was measured using the MTT assay.\nMTT Assay. A549 cells were plated in 96-well plates (2,000 cells/well). After overnight attachment, cells were treated with 2 fold dilutions (0-1000 nM rexinoids) for 72 hr. 50 μL 3-(4,5-dimethylthiazol-2-yl)-2,5-diphenyltetrazolium bromide (MTT; Sigma M2128) was added to each well, and cells were incubated at 37 °C for 4 hr. Media was removed and cells were lysed with developing solution (0.04 M HCl in isopropanol). Plates were read at 550 nm.\n(also on this page, place not known: 110A549 Cell Proliferation (% DMSO Control) 37°C)"}, "SREBP": {"tested_on": "SREBP", "assay": "SREBP protein expression in HepG2 cells (western blot)", "format": "cell-based, human", "conditions": "300 nM rexinoids, 24 h", "description": "Although we have confirmed that the iNOS assay correlates with in vivo efficacy, few investigators have used the induction of SREBP in vitro as a biomarker to predict the ability of novel rexinoids to increase triglycerides in vivo. Elevated triglycerides are a side-effect found with many RXR agonists in preclinical models and by bexarotene in humans[13],[14]. […] HepG2 human liver cells were used, as the liver is the major organ that regulates lipid homeostasis.\nHepG2 were plated in 6-well plates (1 × 10^6 cells/well) and, after allowing the cells to attach overnight, were treated with 300 nM rexinoids and/or varying concentrations of T0901317 (TOCRIS # 2373), GSK 2033 (TOCRIS # 5694), HX 531 (TOCRIS # 3912) for 8 h. Total RNA was isolated with TRIzol (Invitrogen, Carlsbad, CA) and 2 µg RNA was used to synthesize cDNA using the SuperScript III reverse transcriptase kit (Invitrogen, Carlsbad, CA). Primers (IDT) for SREBP (F: 5′-GCCGGTTGATAGGCAGCTT-3′; R: 5′-GGTGAGTGGCGGAACCATT-3′) and GAPDH (F: 5′-[…]-3′; R: 5′-[…]-3′), the SYBR Green Supermix (Bio-rad Laboratories, Hercules, CA) and the QuantStudio 7 Flex Real-Time PCR system (95 °C for 20 s followed by 40 cycles of 95 °C for 15 s and 60 °C for 1 min were used to detect mRNA expression. Relative SREBP/GAPDH gene expression was calculated by the delta-delta Ct method. To evaluate protein expression by western blotting, HepG2 cells were plated as above and treated with 300 nM of rexinoids for 24 h. Cells were harvested and lysed in RIPA buffer (1 M Tris–Cl, 5 M NaCl, pH 7.4, 0.5 M EDTA, 25 mM sodium deoxycholate, 1% triton-X, 0.1% SDS, 0.0125% aprotinin) with protease inhibitors (1% PMSF/0.5% apoprotein/0.1%leupeptin). Protein concentration was measured using a BCA assay (Sigma-Aldrich). Proteins (10 µg/well) were separated in 10% SDS-PAGE gels and transferred to nitrocellulose membranes. Membranes were incubated with SREBP (Active Motif; 1:1000) and GAPDH (Santa Cruz Biotechnology; 1:8000) primary antibodies followed by anti-rabbit secondary antibodies conjugated to horseradish peroxidase (Cell Signaling). Signal was detected using the ECL Western Blotting Substrate (GE Healthcare), and protein levels quantified using ImageJ."}, "[2]": {"conditions": "rexinoids 100 mg/kg diet 12 weeks, C/P i.p. x6"}, "[3]": {"conditions": "rexinoids 100 mg/kg diet 12 weeks, C/P i.p. x6, mean ± SE"}, "[4]": {"conditions": "tumor histopathology, 12 weeks of treatment"}}}
{"compound": "C=C(c1ccc(C(=O)O)cc1)c1cc2c(cc1C)C(C)(C)CCC2(C)C", "note": "[Bexarotene]", "values": [{"measurement": "Single agent activity in this model", "setting": "Kras-driven lung tumors; 100 mg/kg diet, 12 weeks", "value": "inactive"}, {"measurement": "Tumor grades compared to the controls", "setting": "Kras-driven lung tumors; 12 weeks of treatment", "value": "no differences"}, {"measurement": "Average # tumors/slide", "setting": "Kras-driven lung tumors; rexinoids 100 mg/kg diet 12 weeks, C 50 mg/kg and P 15 mg/kg i.p. x6, mean ± SE", "value": "3.37 ± 0.3"}, {"measurement": "Average # tumors/slide (% control)", "setting": "Kras-driven lung tumors; [2]", "value": 79, "unit": "%"}, {"measurement": "Average tumor burden (% control)", "setting": "Kras-driven lung tumors; [2]", "value": 78, "unit": "%"}, {"measurement": "Average tumor size (% control)", "setting": "Kras-driven lung tumors; [2]", "value": 100, "unit": "%"}, {"measurement": "Average tumor burden", "setting": "Kras-driven lung tumors; [3]", "value": "0.72 ± 0.2", "unit": "mm^3"}, {"measurement": "Average tumor size", "setting": "Kras-driven lung tumors; [3]", "value": "0.22 ± 0.04", "unit": "mm^3"}, {"measurement": "# High grade tumors", "setting": "Kras-driven lung tumors; [4]", "value": 71}, {"measurement": "# Low grade tumors", "setting": "Kras-driven lung tumors; [4]", "value": "1 (1%)"}, {"measurement": "# Medium grade", "setting": "Kras-driven lung tumors; [4]", "value": "29 (29%)"}, {"measurement": "High grade tumors (% total)", "setting": "Kras-driven lung tumors; [4]", "value": 70, "unit": "%"}, {"measurement": "Low grade tumors (% total)", "setting": "Kras-driven lung tumors; [4]", "value": "1 (1%)"}, {"measurement": "Medium grade (% total)", "setting": "Kras-driven lung tumors; [4]", "value": "29 (29%)"}, {"measurement": "Plasma triglyceride levels in mice", "setting": "[1]", "value": "2.38 ± 0.3", "unit": "nmol/µL"}, {"measurement": "Growth / proliferation of A549 lung cancer cells", "setting": "A549 lung cancer cells", "value": "do not inhibit proliferation"}, {"measurement": "SREBP protein levels compared to DMSO control", "setting": "SREBP", "value": "increased SREBP protein levels"}]}
